From PubChem BioAssay (NCI)
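Briefly, cells in 96-well plates were exposed to five compound concentrations for 48 h, and endpoints were estimated by linear interpolation. TGI denotes the concentration required for complete inhibition of growth.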

Assays:
Test in all cases: NCI anticancer screen, dose series, 48 h
SK-MEL-28 melanoma = test system: SK-MEL-28 melanoma
RPMI-8226 leukemia = test system: RPMI-8226 leukemia
HS 578T breast = test system: HS 578T breast
MDA-N = test system: MDA-N
SK-MEL-2 melanoma = test system: SK-MEL-2 melanoma
A498 renal = test system: A498 renal
OVCAR-5 ovarian = test system: OVCAR-5 ovarian
EKVX NSCLC = test system: EKVX NSCLC
SK-MEL-5 melanoma = test system: SK-MEL-5 melanoma
SF-268 CNS = test system: SF-268 CNS
HCT-116 colon = test system: HCT-116 colon
MDA-MB-435 = test system: MDA-MB-435
SW-620 colon = test system: SW-620 colon
NCI-H460 lung = test system: NCI-H460 lung
LOX IMVI melanoma = test system: LOX IMVI melanoma
MALME-3M melanoma = test system: MALME-3M melanoma
SF-295 CNS = test system: SF-295 CNS
SN12C renal = test system: SN12C renal
KM12 colon = test system: KM12 colon
T-47D breast = test system: T-47D breast
PC-3 prostate = test system: PC-3 prostate
SF-539 CNS = test system: SF-539 CNS
MOLT-4 leukemia = test system: MOLT-4 leukemia
OVCAR-3 ovarian = test system: OVCAR-3 ovarian
BT-549 breast = test system: BT-549 breast
786-0 renal = test system: 786-0 renal
HCC-2998 colon = test system: HCC-2998 colon
DU-145 prostate = test system: DU-145 prostate
MDA-MB-231 breast = test system: MDA-MB-231 breast
M14 melanoma = test system: M14 melanoma
HT29 colon = test system: HT29 colon
NCI-H226 lung = test system: NCI-H226 lung
NCI-H522 lung = test system: NCI-H522 lung
RXF 393 renal = test system: RXF 393 renal
U251 CNS = test system: U251 CNS
SNB-19 CNS = test system: SNB-19 CNS
IGROV1 ovarian = test system: IGROV1 ovarian
HOP-92 NSCLC = test system: HOP-92 NSCLC
HOP-62 NSCLC = test system: HOP-62 NSCLC
HCT-15 colon = test system: HCT-15 colon
UACC-257 melanoma = test system: UACC-257 melanoma
OVCAR-8 ovarian = test system: OVCAR-8 ovarian
TK-10 renal = test system: TK-10 renal
CAKI-1 renal = test system: CAKI-1 renal
A549 NSCLC = test system: A549 NSCLC
HL-60(TB) leukemia = test system: HL-60(TB) leukemia
COLO 205 colon = test system: COLO 205 colon
SNB-75 CNS = test system: SNB-75 CNS
CCRF-CEM leukemia = test system: CCRF-CEM leukemia
SR leukemia = test system: SR leukemia
SK-OV-3 ovarian = test system: SK-OV-3 ovarian
NCI/ADR-RES ovarian = test system: NCI/ADR-RES ovarian
OVCAR-4 ovarian = test system: OVCAR-4 ovarian
ACHN renal = test system: ACHN renal
UO-31 renal = test system: UO-31 renal
UACC-62 melanoma = test system: UACC-62 melanoma
NCI-H23 lung = test system: NCI-H23 lung
K-562 leukemia = test system: K-562 leukemia

## CCN(CC)C(=S)N/N=C(\C)c1cccc(C)n1
SK-MEL-28 melanoma
  TGI: 6.47 µM
RPMI-8226 leukemia
  TGI: 23.4 µM
HS 578T breast
  TGI: > 81.8 µM
MDA-N
  TGI: 13.7 µM
SK-MEL-2 melanoma
  TGI: 18 µM
A498 renal
  TGI: 0.572 µM
OVCAR-5 ovarian
  TGI: 23.5 µM
EKVX NSCLC
  TGI: 15.5 µM
SK-MEL-5 melanoma
  TGI: 1.46 µM
SF-268 CNS
  TGI: 12.4 µM
HCT-116 colon
  TGI: 1.34 µM
MDA-MB-435
  TGI: 7.76 µM
SW-620 colon
  TGI: 17.2 µM
NCI-H460 lung
  TGI: 0.95 µM
LOX IMVI melanoma
  TGI: 2.55 µM
MALME-3M melanoma
  TGI: 7.4 µM
SF-295 CNS
  TGI: 13.4 µM
SN12C renal
  TGI: 13.4 µM
KM12 colon
  TGI: 6.53 µM
T-47D breast
  TGI: 14.4 µM
PC-3 prostate
  TGI: 17.5 µM
SF-539 CNS
  TGI: 1.13 µM
MOLT-4 leukemia
  TGI: > 71.5 µM
OVCAR-3 ovarian
  TGI: 0.102 µM
BT-549 breast
  TGI: 18.8 µM
786-0 renal
  TGI: 1.36 µM
HCC-2998 colon
  TGI: 9.6 µM
DU-145 prostate
  TGI: 4.96 µM
MDA-MB-231 breast
  TGI: 19.6 µM
M14 melanoma
  TGI: 4.63 µM
HT29 colon
  TGI: 1.78 µM
NCI-H226 lung
  TGI: 5.7 µM
NCI-H522 lung
  TGI: 0.454 µM
RXF 393 renal
  TGI: 14.4 µM
U251 CNS
  TGI: 12.7 µM
SNB-19 CNS
  TGI: 22.2 µM
IGROV1 ovarian
  TGI: 12.7 µM
HOP-92 NSCLC
  TGI: 4.49 µM
HOP-62 NSCLC
  TGI: 12.7 µM
HCT-15 colon
  TGI: 18 µM
UACC-257 melanoma
  TGI: 13.3 µM
OVCAR-8 ovarian
  TGI: 16.9 µM
TK-10 renal
  TGI: 17 µM
CAKI-1 renal
  TGI: 16.6 µM
A549 NSCLC
  TGI: 11.4 µM
HL-60(TB) leukemia
  TGI: 0.626 µM
COLO 205 colon
  TGI: 12.1 µM
SNB-75 CNS
  TGI: 14.1 µM
CCRF-CEM leukemia
  TGI: > 100 µM
SR leukemia
  TGI: > 100 µM
SK-OV-3 ovarian
  TGI: 11.3 µM
NCI/ADR-RES ovarian
  TGI: 13.5 µM
OVCAR-4 ovarian
  TGI: 4.24 µM
ACHN renal
  TGI: 1.92 µM
UO-31 renal
  TGI: 5.83 µM
UACC-62 melanoma
  TGI: 1.76 µM

## COc1cc(OC)cc(-n2c(N)c(C#N)c3ccc([N+](=O)[O-])cc3c2=O)c1
SK-MEL-28 melanoma
  TGI: > 100 µM
RPMI-8226 leukemia
  TGI: > 100 µM
NCI-H23 lung
  TGI: > 100 µM
HS 578T breast
  TGI: 87.6 µM
MDA-N
  TGI: > 100 µM
SK-MEL-2 melanoma
  TGI: > 100 µM
K-562 leukemia
  TGI: > 100 µM
A498 renal
  TGI: 41.6 µM
SK-MEL-5 melanoma
  TGI: > 100 µM
SF-268 CNS
  TGI: > 100 µM
HCT-116 colon
  TGI: > 100 µM
MDA-MB-435
  TGI: > 100 µM
SW-620 colon
  TGI: > 100 µM
NCI-H460 lung
  TGI: > 100 µM
LOX IMVI melanoma
  TGI: > 100 µM
SN12C renal
  TGI: 52.3 µM
KM12 colon
  TGI: > 100 µM
T-47D breast
  TGI: > 100 µM
PC-3 prostate
  TGI: > 100 µM
BT-549 breast
  TGI: > 100 µM
786-0 renal
  TGI: 39.5 µM
HCC-2998 colon
  TGI: > 100 µM
DU-145 prostate
  TGI: 47.1 µM
MDA-MB-231 breast
  TGI: 96.2 µM
HT29 colon
  TGI: > 100 µM
NCI-H226 lung
  TGI: 51.6 µM
U251 CNS
  TGI: 52.4 µM
SNB-19 CNS
  TGI: 40.4 µM
HOP-92 NSCLC
  TGI: 44.9 µM
HCT-15 colon
  TGI: > 100 µM
UACC-257 melanoma
  TGI: > 100 µM
OVCAR-8 ovarian
  TGI: 59.2 µM
TK-10 renal
  TGI: 69 µM
CAKI-1 renal
  TGI: 90.8 µM
A549 NSCLC
  TGI: > 100 µM
COLO 205 colon
  TGI: > 100 µM
SNB-75 CNS
  TGI: 60.6 µM
SR leukemia
  TGI: 55.8 µM
NCI/ADR-RES ovarian
  TGI: > 100 µM
OVCAR-4 ovarian
  TGI: 52 µM
ACHN renal
  TGI: > 100 µM
UO-31 renal
  TGI: 74.9 µM
UACC-62 melanoma
  TGI: > 100 µM
